Laboratory results reported in US20230405069A1, “METHODS OF TREATING AND […] CORONAVIRUS AND OTHER INDICATIONS, AND COMPOSITIONS FOR USE WITH SAME” (priority 2020, published 2023).

System: viral infection
Assay: Subjects with symptoms of viral infection treated with disclosed medicinal compositions (symptom improvement / recovery)
Type: in vivo, human
Settings: Patient 6; one paracetamol/acetaminophen on Day 1 of symptoms
Excerpt: The disclosed compositions are useful in reducing symptoms and/or eliminating viruses in persons suffering from a viral infection or believed to be suffering from a viral infection. Eliminating a virus or an infection from a subject, as used herein, may be referred to as ‘curing’ a subject, for example wherein a subject that has tested positive for the virus (by DNA, RNA, protein, and/or antibody analysis) has no detectable virus (by the same or a different method) after treatment. In these subjects, adults may be administered about 2 ml to about 150 ml per composition per day as a single dose or separated into multiple doses. In some embodiments the subject may be administered the disclosed compounds once, twice, three, or more times a day. In some embodiments, for example, an adult may be administered about 5 ml to about 150 ml of each medicinal composition each day. In many embodiments, (for example where the dose is 15 ml/day) 5 ml is administered 3 times per day as a 5 ml dose. In other embodiments, a 5 ml/day dose may also be divided into 3 or more smaller doses for administration throughout the day—for example about 2 ml three times per day. […]

CC(=O)Nc1ccc(O)cc1 [paracetamol/acetaminophen]
effect on symptoms: symptoms persisted
